Here are results for four molecules from paper doi:10.1101/2023.11.24.568596v1 (biorxiv, 2023).

Targets include CHK2 (Homo sapiens, UniProt O96017); CaMK1d (Homo sapiens, UniProt Q8IU85); LOK (Homo sapiens, UniProt O94804); HIPK2 (Homo sapiens, UniProt Q9H2X6); NDR2 (Homo sapiens, UniProt Q9Y2H1).
What all share (settings): binder
A further assay concerns the target T1, CASK (Homo sapiens, UniProt O14936).
T1 sequence (O14936 1-926): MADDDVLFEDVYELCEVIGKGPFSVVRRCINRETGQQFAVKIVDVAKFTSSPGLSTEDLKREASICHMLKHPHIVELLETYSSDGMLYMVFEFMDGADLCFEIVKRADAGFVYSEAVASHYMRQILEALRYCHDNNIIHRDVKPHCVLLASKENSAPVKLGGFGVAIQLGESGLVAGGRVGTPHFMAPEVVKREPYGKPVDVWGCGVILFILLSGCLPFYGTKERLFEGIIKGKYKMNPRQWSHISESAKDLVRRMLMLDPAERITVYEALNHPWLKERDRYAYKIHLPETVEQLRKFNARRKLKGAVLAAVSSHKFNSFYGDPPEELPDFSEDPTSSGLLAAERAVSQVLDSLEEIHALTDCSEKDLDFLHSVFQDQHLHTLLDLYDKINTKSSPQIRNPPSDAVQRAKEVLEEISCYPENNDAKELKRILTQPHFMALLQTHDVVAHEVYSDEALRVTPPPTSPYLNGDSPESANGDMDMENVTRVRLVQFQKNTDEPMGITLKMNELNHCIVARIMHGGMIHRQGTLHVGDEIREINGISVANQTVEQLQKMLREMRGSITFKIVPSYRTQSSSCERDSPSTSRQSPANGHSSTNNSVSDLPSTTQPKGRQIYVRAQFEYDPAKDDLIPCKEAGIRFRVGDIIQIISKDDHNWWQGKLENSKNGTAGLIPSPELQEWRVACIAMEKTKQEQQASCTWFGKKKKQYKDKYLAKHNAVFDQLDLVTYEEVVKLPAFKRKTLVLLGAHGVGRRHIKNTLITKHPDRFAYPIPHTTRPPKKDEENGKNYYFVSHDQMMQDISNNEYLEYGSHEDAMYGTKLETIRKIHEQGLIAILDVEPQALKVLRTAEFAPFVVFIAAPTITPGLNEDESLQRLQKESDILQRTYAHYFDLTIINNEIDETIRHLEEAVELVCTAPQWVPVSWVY

A further assay deals with T2, EphB1 (Homo sapiens, UniProt P54762).
T2 sequence (P54762 1-984): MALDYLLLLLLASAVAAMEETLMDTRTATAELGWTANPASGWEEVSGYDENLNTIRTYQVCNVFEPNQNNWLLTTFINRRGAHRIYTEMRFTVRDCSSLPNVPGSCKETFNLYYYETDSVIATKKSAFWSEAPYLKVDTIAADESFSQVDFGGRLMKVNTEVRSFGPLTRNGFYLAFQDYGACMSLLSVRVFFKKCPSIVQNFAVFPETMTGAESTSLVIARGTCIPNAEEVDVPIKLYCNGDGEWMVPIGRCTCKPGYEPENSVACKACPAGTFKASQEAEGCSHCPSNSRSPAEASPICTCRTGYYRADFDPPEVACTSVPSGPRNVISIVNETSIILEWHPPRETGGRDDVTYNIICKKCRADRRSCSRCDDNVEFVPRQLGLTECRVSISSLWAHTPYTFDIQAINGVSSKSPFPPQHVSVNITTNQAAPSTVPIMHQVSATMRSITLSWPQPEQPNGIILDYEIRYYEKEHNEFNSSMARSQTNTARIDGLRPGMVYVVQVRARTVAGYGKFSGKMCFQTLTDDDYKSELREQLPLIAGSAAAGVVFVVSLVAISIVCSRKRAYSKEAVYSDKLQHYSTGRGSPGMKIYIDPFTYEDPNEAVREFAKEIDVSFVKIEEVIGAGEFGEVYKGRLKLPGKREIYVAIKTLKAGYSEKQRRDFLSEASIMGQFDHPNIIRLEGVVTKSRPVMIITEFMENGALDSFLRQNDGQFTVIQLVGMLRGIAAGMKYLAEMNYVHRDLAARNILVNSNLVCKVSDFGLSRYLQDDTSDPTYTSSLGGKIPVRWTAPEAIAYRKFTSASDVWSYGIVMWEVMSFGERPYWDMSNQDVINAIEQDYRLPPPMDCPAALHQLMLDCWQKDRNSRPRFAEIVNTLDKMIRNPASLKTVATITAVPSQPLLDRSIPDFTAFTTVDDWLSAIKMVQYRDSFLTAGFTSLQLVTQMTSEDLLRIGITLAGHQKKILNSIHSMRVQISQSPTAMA

NDR2, sequence (Q9Y2H1 whole entry): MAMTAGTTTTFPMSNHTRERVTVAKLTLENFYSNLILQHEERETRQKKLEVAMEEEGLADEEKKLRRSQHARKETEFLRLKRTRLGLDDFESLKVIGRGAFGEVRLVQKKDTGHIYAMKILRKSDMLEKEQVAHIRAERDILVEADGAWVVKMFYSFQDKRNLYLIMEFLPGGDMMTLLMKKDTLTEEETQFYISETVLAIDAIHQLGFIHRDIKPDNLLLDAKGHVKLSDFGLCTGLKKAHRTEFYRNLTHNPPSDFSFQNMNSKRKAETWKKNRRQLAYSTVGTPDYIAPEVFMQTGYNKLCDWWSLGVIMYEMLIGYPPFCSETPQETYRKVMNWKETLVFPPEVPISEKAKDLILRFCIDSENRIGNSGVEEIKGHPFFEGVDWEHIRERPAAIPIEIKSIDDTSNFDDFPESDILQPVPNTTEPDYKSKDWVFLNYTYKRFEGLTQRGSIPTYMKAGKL
CHK2, sequence (O96017 whole entry): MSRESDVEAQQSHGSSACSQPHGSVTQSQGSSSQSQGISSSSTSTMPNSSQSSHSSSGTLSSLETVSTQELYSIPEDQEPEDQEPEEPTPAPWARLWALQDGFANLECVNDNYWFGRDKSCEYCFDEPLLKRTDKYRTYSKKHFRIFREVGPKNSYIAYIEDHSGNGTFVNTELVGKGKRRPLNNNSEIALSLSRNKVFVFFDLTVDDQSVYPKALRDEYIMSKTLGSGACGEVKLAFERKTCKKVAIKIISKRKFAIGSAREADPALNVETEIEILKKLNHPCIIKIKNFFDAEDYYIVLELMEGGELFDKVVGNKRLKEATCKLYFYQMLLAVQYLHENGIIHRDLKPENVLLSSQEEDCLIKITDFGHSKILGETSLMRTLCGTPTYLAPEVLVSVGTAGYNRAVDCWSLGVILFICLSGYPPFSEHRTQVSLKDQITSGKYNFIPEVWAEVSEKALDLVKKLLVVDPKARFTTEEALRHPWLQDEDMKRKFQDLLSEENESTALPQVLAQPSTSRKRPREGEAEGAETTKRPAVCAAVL
HIPK2, sequence (Q9H2X6 whole entry): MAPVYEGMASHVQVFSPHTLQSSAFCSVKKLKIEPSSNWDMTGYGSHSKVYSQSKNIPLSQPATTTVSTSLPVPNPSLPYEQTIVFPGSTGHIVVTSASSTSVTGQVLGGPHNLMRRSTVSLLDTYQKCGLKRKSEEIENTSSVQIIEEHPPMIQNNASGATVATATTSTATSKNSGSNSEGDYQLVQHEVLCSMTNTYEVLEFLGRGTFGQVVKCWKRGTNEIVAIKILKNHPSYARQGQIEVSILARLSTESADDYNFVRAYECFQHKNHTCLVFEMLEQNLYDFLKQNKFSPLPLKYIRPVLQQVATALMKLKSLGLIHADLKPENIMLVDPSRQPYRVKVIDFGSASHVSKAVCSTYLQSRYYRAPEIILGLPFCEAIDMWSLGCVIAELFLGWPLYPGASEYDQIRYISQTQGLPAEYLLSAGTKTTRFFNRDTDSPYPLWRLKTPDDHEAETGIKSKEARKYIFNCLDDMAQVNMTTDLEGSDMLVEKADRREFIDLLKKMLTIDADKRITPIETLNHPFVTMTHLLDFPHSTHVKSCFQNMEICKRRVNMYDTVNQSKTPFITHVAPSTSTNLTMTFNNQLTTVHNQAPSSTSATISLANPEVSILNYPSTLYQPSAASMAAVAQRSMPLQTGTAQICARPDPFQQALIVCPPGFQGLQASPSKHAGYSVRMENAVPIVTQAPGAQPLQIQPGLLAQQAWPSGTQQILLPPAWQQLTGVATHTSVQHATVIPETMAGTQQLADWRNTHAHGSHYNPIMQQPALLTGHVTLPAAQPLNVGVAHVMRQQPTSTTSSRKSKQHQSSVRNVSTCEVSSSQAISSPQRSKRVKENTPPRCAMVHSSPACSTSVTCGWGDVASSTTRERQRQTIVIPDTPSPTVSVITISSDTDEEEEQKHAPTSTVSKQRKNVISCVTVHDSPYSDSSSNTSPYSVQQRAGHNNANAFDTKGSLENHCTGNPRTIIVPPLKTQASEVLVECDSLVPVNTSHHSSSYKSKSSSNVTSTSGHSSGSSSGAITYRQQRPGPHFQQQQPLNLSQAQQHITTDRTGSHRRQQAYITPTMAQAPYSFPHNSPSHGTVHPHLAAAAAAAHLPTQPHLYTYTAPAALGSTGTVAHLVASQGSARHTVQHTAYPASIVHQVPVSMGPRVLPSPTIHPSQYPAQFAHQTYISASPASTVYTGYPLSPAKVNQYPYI
LOK, sequence (O94804 whole entry): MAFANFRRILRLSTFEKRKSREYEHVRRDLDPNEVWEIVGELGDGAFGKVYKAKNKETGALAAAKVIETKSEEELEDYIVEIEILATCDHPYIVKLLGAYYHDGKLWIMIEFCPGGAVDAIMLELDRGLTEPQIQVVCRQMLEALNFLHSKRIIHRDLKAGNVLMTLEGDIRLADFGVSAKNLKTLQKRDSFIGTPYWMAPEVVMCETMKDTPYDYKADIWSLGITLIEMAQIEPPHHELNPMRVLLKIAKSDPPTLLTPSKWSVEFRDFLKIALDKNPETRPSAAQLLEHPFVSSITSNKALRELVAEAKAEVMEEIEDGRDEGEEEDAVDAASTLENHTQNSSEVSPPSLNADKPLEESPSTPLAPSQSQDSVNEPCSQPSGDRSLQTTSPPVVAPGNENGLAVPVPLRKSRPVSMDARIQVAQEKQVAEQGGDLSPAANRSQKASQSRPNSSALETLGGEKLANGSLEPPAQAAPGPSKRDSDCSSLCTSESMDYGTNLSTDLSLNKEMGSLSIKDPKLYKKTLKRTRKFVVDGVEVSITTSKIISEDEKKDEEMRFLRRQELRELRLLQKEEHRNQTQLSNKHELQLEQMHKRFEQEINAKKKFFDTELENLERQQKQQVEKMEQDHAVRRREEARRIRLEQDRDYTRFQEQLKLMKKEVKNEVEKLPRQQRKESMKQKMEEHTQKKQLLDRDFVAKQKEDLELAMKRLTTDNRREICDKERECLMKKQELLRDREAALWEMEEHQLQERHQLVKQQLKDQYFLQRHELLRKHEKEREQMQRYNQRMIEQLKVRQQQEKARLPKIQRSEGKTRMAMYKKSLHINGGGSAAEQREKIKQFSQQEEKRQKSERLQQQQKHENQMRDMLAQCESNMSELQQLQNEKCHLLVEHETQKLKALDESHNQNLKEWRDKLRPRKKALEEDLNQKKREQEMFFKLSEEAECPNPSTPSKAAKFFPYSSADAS
CaMK1d, sequence (Q8IU85 whole entry): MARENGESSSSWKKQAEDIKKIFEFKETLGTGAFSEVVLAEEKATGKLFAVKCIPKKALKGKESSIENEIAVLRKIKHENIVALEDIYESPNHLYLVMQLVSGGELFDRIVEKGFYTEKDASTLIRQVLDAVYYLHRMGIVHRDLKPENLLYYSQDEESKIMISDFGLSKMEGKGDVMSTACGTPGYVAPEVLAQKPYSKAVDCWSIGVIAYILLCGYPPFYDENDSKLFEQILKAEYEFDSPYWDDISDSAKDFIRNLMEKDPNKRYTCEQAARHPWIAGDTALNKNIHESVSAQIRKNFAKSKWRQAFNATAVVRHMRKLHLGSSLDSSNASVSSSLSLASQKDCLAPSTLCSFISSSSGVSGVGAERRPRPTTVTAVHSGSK

As to `Cc1cccc(-c2ccc(-c3cc4cnc(Nc5ccc(F)c(CO)c5)nc4n(CCCCN)c3=O)c(Cl)c2)n1` [compound 33, 8-(4-Aminobutyl)-6-(2-chloro-4-(6-methylpyridin-2-yl)phenyl)-2-((4-fluoro-3-(hydroxymethyl)phenyl)amino)pyrido[2,3-d]pyrimidin-7(8H)-one], the “dTm 33” value at CHK2 is 10.4 °C; on CASK, 0.2 °C; at CaMK1d, 5.9 °C; at LOK, -0.3 °C; on HIPK2 it was 2.0 °C; at EphB1, 6.5 °C. For the same molecule, the “dTm 33” value at NDR2 was determined as 10.4 °C.

On to `COc1ccc(O)c(Nc2ncc3cc(-c4ccc(-c5cccc(C)n5)cc4Cl)c(=O)n(CCCCN)c3n2)c1` [compound 34, 8-(4-Aminobutyl)-6-(2-chloro-4-(6-methylpyridin-2-yl)phenyl)-2-((2-hydroxy-5-methoxy-phenyl)amino)pyrido[2,3-d]pyrimidin-7(8H)-one], for which the “dTm 34” value on CHK2 is 6.4 °C; at CASK, -0.2 °C; at CaMK1d, 3.9 °C; on LOK, -0.3 °C; on HIPK2, 0.5 °C; on EphB1, 5.2 °C. Besides, the “dTm 34” value at NDR2 was 6.0 °C.

On to `COc1cc(N2CCOCC2)ccc1Nc1ncc2cc(-c3ccc(-c4cccc(C)n4)cc3Cl)c(=O)n(CCCCN)c2n1` [compound 35, 8-(4-Aminobutyl)-6-(2-chloro-4-(6-methylpyridin-2-yl)phenyl)-2-((2-methoxy-4-morpholino-phenyl)amino)pyrido[2,3-d]pyrimidin-7(8H)-one], for which the “dTm 35” value was 13.0 °C at CHK2; 0.0 °C on CASK; 5.8 °C at CaMK1d; -0.8 °C at LOK; 0.1 °C on HIPK2; 6.0 °C at EphB1. Further, the “dTm 35” value on NDR2 was 6.5 °C.

Take `COc1cc(N2CCN(C)CC2)ccc1Nc1ncc2cc(-c3ccc(-c4cccc(C)n4)cc3Cl)c(=O)n(CCCCN)c2n1` [compound 36, 8-(4-Aminobutyl)-6-(2-chloro-4-(6-methylpyridin-2-yl)phenyl)-2-((2-methoxy-4-(4-methylpiperazin-1-yl)phenyl)amino)pyrido[2,3-d]pyrimidin-7(8H)-one]: the “dTm 36” value is 12.6 °C at CHK2; -0.4 °C at CASK; 5.6 °C on CaMK1d; -0.4 °C on LOK; 0.3 °C at HIPK2; 5.5 °C on EphB1. For the same molecule, the “dTm 36” value on NDR2 came out at 5.2 °C.
